One test concerns panel of 97 kinases. The test is described as follows: Selectivity profiling, scanEDGE kinase panel (KINOMEscan). The class given is binding. As to conditions: 100 nM, cut-off <35% ctrl. The method, then:
Selectivity profiling was done over a panel of 97 kinases at 100 nM concentration (scanEDGE assay panel from Discover X, which also uses the KINOMEscan technology, whereat KIT(D816V) and KIT (V559D, T6701) were replaced by TrkB and TrkC). […] The employed profiling panel consisted of the following kinases: ABL1(T3151)-phosphorylated, ABL1-nonphosphorylated, ABL1-phosphorylated, ACVR1B, ADCK3, AKT1, AKT2, ALK, AURKA, AURKB, AXL, BMPR2, BRAF, BRAF (V600E), BTK, CDK11, CDK2, CDK3, CDK7, CDK9, CHEK1, CSF1R, CSNK1D, CSNK1G2, DCAMKL1, DYRK1B, EGFR, EGFR (L858R), EPHA2, ERBB2, ERBB4, ERK1, FAK, FGFR2, FGFR3, FLT3, GSK3B, IGF1R, IKK-alpha, IKK-beta, INSR, JAK2 (JH1domain-catalytic), JAK3 (JH1domain-catalytic), JNK1, JNK2, JNK3, KIT, LKB1, MAP3K4, MAPKAPK2, MARK3, MEK1, MEK2, MET, MKNK1, MKNK2, MLK1, p38-alpha, p38-beta, PAK1, PAK2, PAK4, PCTK1, PDGFRA, PDGFRB, PDPK1, PIK3C2B, PIK3CA, PIK3CG, PIM1, PIM2, PIM3, PKAC-alpha, PLK1, PLK3, PLK4, PRKCE, RAF1, RET, RIOK2, ROCK2, RSK2 (Kin. Dom. 1-N-terminal), SNARK, SRC, SRPK3, TGFBR1, TIE2, TRKA, TRKB, TRKC, TSSK1B, TYK2 (JH1domain-catalytic), ULK2, VEGFR2, YANK3, ZAP70

The target of test [1] is T1, AurA (Homo sapiens, UniProt O14965).
T1 sequence (O14965 1-403): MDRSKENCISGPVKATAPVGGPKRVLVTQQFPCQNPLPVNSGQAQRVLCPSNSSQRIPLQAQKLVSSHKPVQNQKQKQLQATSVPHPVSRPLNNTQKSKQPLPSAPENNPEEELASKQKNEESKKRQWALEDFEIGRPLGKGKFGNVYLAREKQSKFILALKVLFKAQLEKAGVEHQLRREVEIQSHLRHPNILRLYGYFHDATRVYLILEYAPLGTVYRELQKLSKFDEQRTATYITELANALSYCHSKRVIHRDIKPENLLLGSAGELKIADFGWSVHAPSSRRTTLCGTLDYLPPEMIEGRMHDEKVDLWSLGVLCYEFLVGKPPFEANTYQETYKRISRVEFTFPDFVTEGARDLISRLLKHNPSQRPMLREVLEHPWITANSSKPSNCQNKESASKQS
The test is described as follows: KINOMEscan primary screen against AurA. Particulars: % of control. The class given is binding. The protocol: (§1) Compounds were initially tested in a primary screen against TrkA (at 10 and 100 nM) and AurA (at 100 nM and 1 μM) using the KINOMEscan technology from DiscoverX Corporation, Fremont, Calif., USA (https://www.discoverx.com/services/drug-discovery-development-services/kinase-profiling/kinomescan).

Test [2] deals with T2, TrkA (Homo sapiens, UniProt P04629). The test is described as follows: KINOMEscan primary screen against TrkA. Particulars: % of control. The class given is binding. The method, then:
as §1
Results were reported as % of control (% Ctrl.=(test compound signal−positive control signal)/(DMSO signal−positive control signal). KINOMEscan is an active site-directed competition binding assay that quantitatively measures the ability of a compound to compete with an immobilized, active-site directed ligand.

Test [3] addresses full-length human TrkA receptor (Homo sapiens, UniProt P04629). The test is described as follows: PathHunter cellular functional assay, antagonism of β-NGF. The class given is cell-based. As to conditions: antagonism at EC80 (0.03 μg/ml) of β-NGF; read-out: Cellular assay [RC50]. The text has this:
The two compounds a1 and b7 were additionally tested in a functional assay using the PathHunter® technology (DiscoverX Corporation, Freemont, Calif., USA; https://www.discoverx.com/technologies-platforms/enzyme-fragment-complementation-technoloqy/cell-based-efc-assays/protein-protein-interactions/kinases-cell-based-(rtk-ctk)). In this assay, the full-length human TrkA receptor (i.e. including ligand-binding and kinase domains) is expressed as a C-terminal (intracellular) fusion with a small peptide epitope, called Prolink™ (PK). Furthermore, a SH2 domain containing protein (i.e. Shc1) is co-expressed with a larger Enzyme Acceptor (EA) fragment. Activation of the TrkA receptor by adding the agonist ligand (β-NGF), leads to the auto-phosphorylation of the kinase and subsequent binding of the Shc1-EA protein. That recruitment results in an active B-galactosidase enzyme that is detected by addition of a chemiluminescent substrate.
Compounds were tested for antagonism using EC80 concentration (i.e. 0.03 μg/ml) of β-NGF. Data was normalized to the maximal and minimal response observed in the presence of EC80 agonist ligand (3-NGF) and vehicle (DMSO, final concentration 1%), respectively.

The target in test [4] is T1, AurA. The test is described as follows: KdELECT Kd measurement (KINOMEscan), AurA. The class given is binding. The protocol:
(§2) Kd measurements were done via the KdELECT product service from DiscoverX Corporation (Freemont, Calif., USA) which also employs the KINOMEscan technology. Here, inhibitor binding constants (Kd values) are calculated from duplicate 11-point dose-response curves.

Test [5] has as its target TrkA. The test is described as follows: KdELECT Kd measurement (KINOMEscan), TrkA. As to conditions: TrkA pKd versus AurA pKd. The class given is binding. The protocol: as §2
The target in test [6] is T2, TrkA. The test is described as follows: KdELECT Kd measurement (KINOMEscan), TrkA. The class given is binding. The protocol:
as §2

Where [7] appears, read: duplicate 11-point dose-response curves.

Entries after “also recorded” stand apart in the source; their conditions may differ.

As a reminder, the Kd is the constant that tells how readily two partners part at equilibrium. Higher therefore signals a looser complex.

T2 sequence (P04629 33-796): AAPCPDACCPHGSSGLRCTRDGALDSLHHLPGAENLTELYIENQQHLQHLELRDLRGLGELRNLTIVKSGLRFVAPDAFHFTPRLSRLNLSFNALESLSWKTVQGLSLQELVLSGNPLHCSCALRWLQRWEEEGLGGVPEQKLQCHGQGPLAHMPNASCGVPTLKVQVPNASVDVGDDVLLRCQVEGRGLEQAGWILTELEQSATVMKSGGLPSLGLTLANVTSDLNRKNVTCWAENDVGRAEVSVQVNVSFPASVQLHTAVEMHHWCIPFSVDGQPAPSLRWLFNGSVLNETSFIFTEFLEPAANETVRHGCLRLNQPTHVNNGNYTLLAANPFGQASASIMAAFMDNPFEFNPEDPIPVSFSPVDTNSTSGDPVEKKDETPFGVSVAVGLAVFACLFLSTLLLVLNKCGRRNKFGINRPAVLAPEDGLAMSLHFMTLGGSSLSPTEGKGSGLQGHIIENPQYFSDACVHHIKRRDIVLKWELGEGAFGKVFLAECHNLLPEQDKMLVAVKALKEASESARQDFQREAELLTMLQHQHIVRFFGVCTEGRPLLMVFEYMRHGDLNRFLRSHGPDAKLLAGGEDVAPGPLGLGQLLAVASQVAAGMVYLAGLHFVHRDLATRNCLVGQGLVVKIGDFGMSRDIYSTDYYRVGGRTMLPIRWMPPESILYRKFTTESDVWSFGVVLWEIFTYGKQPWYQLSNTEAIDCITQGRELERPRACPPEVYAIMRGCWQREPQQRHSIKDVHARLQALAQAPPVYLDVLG
full-length human TrkA receptor, sequence (P04629 33-796): as above
full-length human TrkA receptor, sequence (P01138 122-241 partner): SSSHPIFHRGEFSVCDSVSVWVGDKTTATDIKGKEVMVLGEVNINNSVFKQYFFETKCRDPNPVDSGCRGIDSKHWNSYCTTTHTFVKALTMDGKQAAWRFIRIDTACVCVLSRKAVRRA

Regarding `Cc1cc(Nc2cc(N3CCN(C)CC3)nc(SCc3ccc(F)cc3)n2)n[nH]1` [b7, 2-{[(4-fluorophenyl)methyl]sulfanyl}-N-(5-methyl-1H-pyrazol-3-yl)-6-(4-methylpiperazin-1-yl)pyrimidin-4-amine], the “# Hits” value in the test with panel of 97 kinases (N = 92 non-mutant kinases) came to 18. Besides, the “List of inhibited kinases” value in the test on panel of 97 kinases was “TrkA, TrkB, TrkC, ABL1, ALK,; also recorded: AurA, FLT3, FMS, JAK2, JAK3,; also recorded: KDR, KIT, NuaK2, PDGFRb, PLK4,; also recorded: RET, SRC, TYK2”. In the test with panel of 97 kinases (inhibited kinases/tested kinases), the “Selectivity Score” value is 0.196. Also, the “% Ctrl. AurA @100 nM” value at AurA [1] (100 nM compound) was determined as 15 % Ctrl. Besides, the “% Ctrl. AurA @1 μM” value on AurA [1] (1 μM compound) was 0.85 % Ctrl. In addition, on TrkA [2] (10 nM compound), the “% Ctrl. TrkA @10 nM” value is recorded as 9.3 % Ctrl. Moreover, the “% Ctrl. TrkA @100 nM” value on TrkA [2] (100 nM compound) is recorded as 0.5 % Ctrl. Also, the IC50 in test [3] turned out to be 23 nM. Moreover, on AurA [4], the “AurA [pKd]” value is on record as 7.6. In addition, the Kd is 28 nM at AurA [4] (setting [7]) and 1.1 nM at TrkA [6] (setting [7]). Further, the ΔpKd at TrkA [5] is given as 1.4. Also, on TrkA [6], the “TrkA [pKd]” value worked out at 9.0.

The record behind these values is patent publication US20200399250A1, “Pyrimidine Derivatives as Tropomyosin Receptor Kinase A (TRKA) Inhibitors” (BIOMED X GMBH, priority 2017, published 2020).
